# Measurements reported in US11634447B2 (priority 2012, dated 2023).
# Test system: bacterial strain LF82 binding to the glycoprotein BSA-(Mannose)3
# Experiment: Bacterial Binding Assay (BBA)
# Type: cell-based, Escherichia coli
# Details: read-out: Bacterial Binding Assay IC50, LF82/Luciferase strain binding to BSA-(Man)3 coated plates, luminescence
# Excerpt: The purpose of the Bacterial Binding Assay (BBA) is to determine the inhibition activity of
# selective FimH antagonists on the bacterial strain LF82 binding to the glycoprotein BSA-(Mannose)3.
# Below is a list of the Materials used to run the BBA are described below. • 1. LB broth: Supplier: Gibco, #10855 • 2. D-PBS: Supplier: Wisent, #311-425-CL • 3. LB agar plates • 4. 96-well black plate (high binding): Supplier: Costar, #3925 • 5. TopSeal™-A adhesive sealing films; Supplier PerkinElmer, #6005185 • 6. Carbonate-bicarbonate buffer pH 9.6 tablets, Supplier: Medicago, #09-8922-24 • 7. Water, Supplier: Gibco, #15230-162 • 8. Bovine serum albumin (BSA): Supplier: Sigma, #A-7888 • 9. (Man)3-BSA (α1-3, α1-6 Mannotriose-BSA, 1 mg), V-Labs, #NGP1336, lot #HGDX37-169-1 • 10. Tween 20: Supplier: Sigma, #P9416 • 11. Bright-Glo Luciferase Assay System: Supplier: Promega, #E2610 • 12. LF82/Luciferase strain: Invasive ability of an Escherichia coli strain isolated from the ileal mucosa of a patient with Crohn ? disease. Boudeau J, Glasser A L, Masseret E, Joly B, Darfeuille-Michaud A, Infect Immun. 1999, 67(9), 4499-509
# Solutions and buffers used to run the BBA are described below. • 1. 0.04M carbonate-bicarbonate buffer (coating buffer) • 2. 40 μg/mL BSA-(Man)3: Dissolve 1 mg of (Man)3-BSA in 25 mL of water. • 3. 4000 μg/mL BSA • 4. 40 μg/mL BSA • 5. 1 μg/mL BSA-(Man)3: 150 μL of 40 μg/mL BSA-(Man)3+5.85 mL of 40 μg/mL BSA • 6. 0.5 μg/mL BSA-(Man)3 in 0.02M carbonate-bicarbonate buffer. • 7. 20 μg/mL BSA in 0.02M carbonate-bicarbonate buffer • 8. Blocking buffer (2% BSA/DPBS): 1 g of BSA in 50 mL D-PBS • 9. 2× binding buffer (0.2% BSA/D-PBS): 5 mL of blocking buffer+45 mL D-PBS. • 10. Washing buffer (D-PBS/0.01% Tween 20): 10 μL of Tween 20 in 100 mL D-PBS. • 11. 1× Bright-Glo Luciferase substrate: Dilute 1:1 the Bright-Glo Luciferase Assay System with D-PBS The experimental protocol to run the BBA is described below.
# Overnight culture of LF82/Luciferase strain: Into two Falcon 50 mL tubes, add 20 mL of LB+20 μL of 50 mg/mL Kanamycin and inoculate with a loop from glycerol stock of the LF82/Luciferase strain. Incubate overnight at 37° C. with no shaking.
# Glycoprotein coating of 96-well plates: Add 100 μL/well of 0.5-2 μg/mL BSA-(Man)3. 20 μg/mL BSA is used as the control background. Seal plate using an adhesive sealing film and incubate overnight at room temperature. Wash the 96-well plate three times with 150 μL/well of D-PBS, add 170 μL/well of blocking solution and incubate 45 min (minimum) at room temperature.
# Preparation of bacterial suspension: Mix the two cultures tubes (40 mL) and perform a 1:10 dilution in LB (900 μl LB+100 μl culture. Measure optical density (OD) of the bacterial cultures. OD1 ˜5×10^8 cells/mL. Centrifuge LF82 culture for 20 min at 3500 rpm at room temperature. Re-suspend bacterial pellet in D-PBS and centrifuge again for 20 min at 3500 rpm. Re-suspend bacterial pellet in D-PBS to obtain a bacterial concentration of 2×10^9 bacteria/mL. Dilute 1/10 in D-PBS to obtain a final bacterial concentration of 2×10^8 bacteria/mL (=107 bacteria/50 μL). Perform 1/10 serial dilutions in LB of each bacterial suspension, plate 10 μL of dilutions on LB agar plates (final dilutions of 10^−7) and incubate overnight at 37° C. and count CFUs to determine the actual bacteria density in the assay.
# Bacterial binding assay: Add 147 μL 2× binding buffer to compound plate (containing 3 μL of compound). After blocking step is performed (at least 45 min), wash plates three times with 200 μL/well of D-PBS. With a 100 μL multichannel manual pipettor, add 50 µL/well of compound diluted in 2× binding buffer. With a 100 μL multichannel manual pipettor, add 50 μL/well of bacterial suspension. Agitate at slow speed for 1 min and incubate 40-75 min at room temperature. Wash 5 times with 150 μL/well of washing buffer and then once with D-PBS. Add 100 μL/well of 1× Bright-Glo Luciferase substrate. […]
row,Structure (SMILES),IC50 [nM]
1,"COCc1cc(C#C[C@H]2O[C@H](CO)[C@@H](O)[C@H](O)[C@@H]2O)c(COC)cc1C#C[C@H]1O[C@H](CO)[C@@H](O)[C@H](O)[C@@H]1O [Compound 89, (2R,3S,4R,5S,6R)-2-[2-[2,5-bis(methoxymethyl)-4-[2-[(2R,3S,4R,5S,6R)-3,4,5-trihydroxy-6-(hydroxymethyl)tetrahydropyran-2-yl]ethynyl]phenyl]ethynyl]-6-(hydroxymethyl)tetrahydropyran-3,4,5-triol]",82
2,"CN1CCC(n2c3cc(C#C[C@H]4O[C@H](CO)[C@@H](O)[C@H](O)[C@@H]4O)ccc3c3ccc(C#C[C@H]4O[C@H](CO)[C@@H](O)[C@H](O)[C@@H]4O)cc32)CC1 [Compound 187, (2R,3S,4R,5S,6R)-2-(hydroxymethyl)-6-[2-[9-(1-methyl-4-piperidyl)-7-[2-[(2R,3S,4R,5S,6R)-3,4,5-trihydroxy-6-(hydroxymethyl)tetrahydropyran-2-yl]ethynyl]carbazol-2-yl]ethynyl]tetrahydropyran-3,4,5-triol]",1
3,"Cc1cccc(C(=O)c2c(C#C[C@H]3O[C@H](CO)[C@@H](O)[C@H](O)[C@@H]3O)ccc3c2C2(CCNCC2)c2cc(C#C[C@H]4O[C@H](CO)[C@@H](O)[C@H](O)[C@@H]4O)ccc2-3)n1 [Compound 239, [2,7-bis[2-[(2R,3S,4R,5S,6R)-3,4,5-trihydroxy-6-(hydroxymethyl)tetrahydropyran-2-yl]ethynyl]spiro[fluorene-9,4piperidine]-1yl]-(6-methyl-2-pyridyl)methanone]",0.35
4,"[2H]C([2H])([2H])OCCn1c2cc(C#C[C@H]3O[C@H](CO)[C@@H](O)[C@H](O)[C@@H]3O)ccc2c2ccc(C#C[C@H]3O[C@H](CO)[C@@H](O)[C@H](O)[C@@H]3O)cc21 [Compound 183, (2R,3S,4R,5S,6R)-2-(Hydroxymethyl)-6-[2-[9-[2-(trideuteriomethoxy)ethyl]-7-[2-[(2R,3S,4R,5S,6R)-3,4,5-trihydroxy-6-(hydroxymethyl)tetrahydropyran-2-yl]ethynyl]carbazol-2-yl]ethynyl]tetrahydropyran-3,4,5-triol]",0.76
5,"Cc1cc(/C=C/c2ccc([C@H]3O[C@H](CO)[C@@H](O)[C@H](O)[C@@H]3O)c(C)c2)ccc1[C@H]1O[C@H](CO)[C@@H](O)[C@H](O)[C@@H]1O [Compound 159, (2R,3S,4R,5S,6R)-2-(hydroxymethyl)-6-[2-methyl-4-[(E)-2-[3-methyl-4-[(2R,3S,4R,5S,6R)-3,4,5-trihydroxy-6-(hydroxymethyl)tetrahydropyran-2-yl]phenyl]vinyl]phenyl]tetrahydropyran-3,4,5-triol]",46
6,"CC(C)(C)OC(=O)N1CCC(n2c3cc(C#C[C@H]4O[C@H](CO)[C@@H](O)[C@H](O)[C@@H]4O)ccc3c3ccc(C#C[C@H]4O[C@H](CO)[C@@H](O)[C@H](O)[C@@H]4O)cc32)CC1 [Compound 185, tert-butyl 4-[2,7-bis[2-[(2R,3S,4R,5S,6R)-3,4,5-trihydroxy-6-(hydroxymethyl)tetrahydropyran-2-yl]ethynyl]carbazol-9-yl]piperidine-1-carboxylate]",1.1
7,"OCCn1c2cc(C#C[C@H]3O[C@H](CO)[C@@H](O)[C@H](O)[C@@H]3O)ccc2c2ccc(C#C[C@H]3O[C@H](CO)[C@@H](O)[C@H](O)[C@@H]3O)cc21 [Compound 182, (2R,3 S,4R,5S,6R)-2-[2-[9-(2-Hydroxyethyl)-7-[2-[(2R,3 S,4R,5S,6R)-3,4,5-trihydroxy-6-(hydroxymethyl)tetrahydropyran-2-yl]ethynyl]carbazol-2-yl]ethynyl]-6-(hydroxymethyl)tetrahydropyran-3,4,5-triol]",1.4
8,"Cc1cc(C#C[C@H]2O[C@H](CO)[C@@H](O)[C@H](O)[C@@H]2O)c(C)cc1C#C[C@H]1O[C@H](CO)[C@@H](O)[C@H](O)[C@@H]1O [Compound 97, (2R,3S,4R,5S,6R)-2-[2-[2,5-dimethy1-4-[2-[(2R,3S,4R,5S,6R)-3,4,5-trihydroxy-6-(hydroxymethyl)tetrahydropyran-2-yl]ethynyl]phenyl]ethynyl]-6-(hydroxymethyl)tetrahydropyran-3,4,5-triol]",24
